Assay results from patent US20090137664A1, “SAURURUS CERNUUS COMPOUNDS THAT INHIBIT CELLULAR RESPONSES TO HYPOXIA” (priority 2003, published 2009).
pIC50: −log10 of the molar value.

Key:
HIF-1α protein = experiment: Western blot, hypoxic induction of nuclear HIF-1α protein in T47D cells; assay type: cell-based, human; settings: T47D nuclear extract, hypoxia 4 hr
Procedure: Due to the low abundance of HIF-1α protein in whole cell extract, nuclear extract is prepared and the level of HIF-1α protein in the nuclear extract determined by Western blot. Briefly, exponentially grown T47D cells are exposed to compound 2 for 30 minutes. […] Nuclear extracts are prepared from control and treated cells, separated on a SDS/PAGE gel, the separated proteins transferred to a nitrocellulose membrane, incubated with the primary antibodies (anti-HIF-1α, and anti-HIF-1β monoclonal antibodies, Novus Biologicals), secondary antibody biotinylated anti-mouse immunoglobulin G and Vectastain ABC reagent (Vector Laboratories), and developed using ECL reagents (Amersham Biosciences). […] No change in HIF-1β protein level is observed across the treatments. It is reasonable to conclude that the selectivity of compound 2 towards hypoxia-activated HIF-1 is caused by selective blockade of the hypoxic induction of HIF-1 protein.
To investigate the mechanism of action, the effects of these compounds on hypoxic stabilization of HIF-1α protein are examined in T47D cells using Western blot.

MOLT-4 = experiment: NCI in vitro cell line screen (SRB), Leukemia MOLT-4; assay type: cell-based
Procedure: (§1) For exemplary purposes, an embodiment of the present invention was tested for activity with respect to certain cancer cell lines. The following Tables show results from in vitro 60-cell line antitumor testing from the US National Cancer Institute Developmental Therapeutics Program (NCI-DTP) on compound 2. The testing was in connection with the NCI's In Vitro Cell Line Screening Project (IVCLSP). Detailed information regarding the experiments and their interpretation is available from the NCI.

A549/ATCC = experiment: NCI in vitro cell line screen (SRB), Non-Small Cell Lung Cancer A549/ATCC; assay type: cell-based
Procedure: as §1

EKVX = experiment: NCI in vitro cell line screen (SRB), Non-Small Cell Lung Cancer EKVX; assay type: cell-based
Procedure: as §1

KM12 = experiment: NCI in vitro cell line screen (SRB), Colon Cancer KM12; assay type: cell-based
Procedure: as §1

SW-620 = experiment: NCI in vitro cell line screen (SRB), Colon Cancer SW-620; assay type: cell-based
Procedure: as §1

LOX IMVI = experiment: NCI in vitro cell line screen (SRB), Melanoma LOX IMVI; assay type: cell-based
Procedure: as §1

UACC-62 = experiment: NCI in vitro cell line screen (SRB), Melanoma UACC-62; assay type: cell-based
Procedure: as §1

OVCAR-8 = experiment: NCI in vitro cell line screen (SRB), Ovarian Cancer OVCAR-8; assay type: cell-based
Procedure: as §1

UO-31 = experiment: NCI in vitro cell line screen (SRB), Renal Cancer UO-31; assay type: cell-based
Procedure: as §1

HIF-1 = experiment: pTK-HRE3-luc reporter assay, hypoxia-induced HIF-1 activation in T47D cells; settings: Homo sapiens, T47D, read-out: IC50, inhibition of hypoxic activation of HIF-1
[1] = Homo sapiens, read-out: LC50 (the source's name)

Compound: COc1ccc([C@@H](O)[C@@H](C)Oc2ccc([C@H]3O[C@H](c4ccc(O[C@H](C)[C@H](O)c5ccc6c(c5)OCO6)c(OC)c4)[C@H](C)[C@H]3C)cc2OC)cc1OC [Compound 2, manassantin B]
- hypoxic induction of HIF-1α protein (HIF-1α protein): specifically inhibits
- TGI (MOLT-4): >1.00E−4 Molar
- GI50 (MOLT-4; Homo sapiens): 44.7 µM
- LC50 (concentration killing 50% of cells) (MOLT-4; Homo sapiens): > 100 µM
- Mean Optical Densities (MOLT-4; Log10 Concentration −4.0 Molar): 0.416
- Percent Growth (MOLT-4; Log10 Concentration −4.0 Molar): 47%
- Mean Optical Densities (MOLT-4; Log10 Concentration −5.0 Molar): 0.462
- Percent Growth (MOLT-4; Log10 Concentration −5.0 Molar): 55%
- Mean Optical Densities (MOLT-4; Log10 Concentration −6.0 Molar): 0.685
- Percent Growth (MOLT-4; Log10 Concentration −6.0 Molar): 90%
- Mean Optical Densities (MOLT-4; Log10 Concentration −7.0 Molar): 0.646
- Percent Growth (MOLT-4; Log10 Concentration −7.0 Molar): 84%
- Mean Optical Densities (MOLT-4; Log10 Concentration −8.0 Molar): 0.646
- Percent Growth (MOLT-4; Log10 Concentration −8.0 Molar): 84%
- TGI (A549/ATCC): >1.00E−4 Molar
- GI50 (A549/ATCC; Homo sapiens): 6.76 µM
- LC50 (concentration giving 50% net cell kill) (A549/ATCC; Homo sapiens): > 100 µM
- Mean Optical Densities (A549/ATCC; Log10 Concentration −4.0 Molar): 0.691
- Percent Growth (A549/ATCC; Log10 Concentration −4.0 Molar): 30%
- Mean Optical Densities (A549/ATCC; Log10 Concentration −5.0 Molar): 0.849
- Percent Growth (A549/ATCC; Log10 Concentration −5.0 Molar): 45%
- Mean Optical Densities (A549/ATCC; Log10 Concentration −6.0 Molar): 1.200
- Percent Growth (A549/ATCC; Log10 Concentration −6.0 Molar): 77%
- Mean Optical Densities (A549/ATCC; Log10 Concentration −7.0 Molar): 1.242
- Percent Growth (A549/ATCC; Log10 Concentration −7.0 Molar): 80%
- Mean Optical Densities (A549/ATCC; Log10 Concentration −8.0 Molar): 1.288
- Percent Growth (A549/ATCC; Log10 Concentration −8.0 Molar): 85%
- TGI (EKVX): 8.25E−5 Molar
- GI50 (EKVX; Homo sapiens): 2.51 µM
- CC50 (EKVX; [1]): > 100 µM
- Mean Optical Densities (EKVX; Log10 Concentration −4.0 Molar): 0.970
- Percent Growth (EKVX; Log10 Concentration −4.0 Molar): −2%
- Mean Optical Densities (EKVX; Log10 Concentration −5.0 Molar): 1.180
- Percent Growth (EKVX; Log10 Concentration −5.0 Molar): 25%
- Mean Optical Densities (EKVX; Log10 Concentration −6.0 Molar): 1.479
- Percent Growth (EKVX; Log10 Concentration −6.0 Molar): 66%
- Mean Optical Densities (EKVX; Log10 Concentration −7.0 Molar): 1.478
- Percent Growth (EKVX; Log10 Concentration −7.0 Molar): 66%
- Mean Optical Densities (EKVX; Log10 Concentration −8.0 Molar): 1.447
- Percent Growth (EKVX; Log10 Concentration −8.0 Molar): 62%
- TGI (KM12): >1.00E−4 Molar
- GI50 (KM12; Homo sapiens): 7.78 µM
- CC50 (KM12; [1]): > 100 µM
- Mean Optical Densities (KM12; Log10 Concentration −4.0 Molar): 1.287
- Percent Growth (KM12; Log10 Concentration −4.0 Molar): 50%
- Mean Optical Densities (KM12; Log10 Concentration −5.0 Molar): 1.205
- Percent Growth (KM12; Log10 Concentration −5.0 Molar): 44%
- Mean Optical Densities (KM12; Log10 Concentration −6.0 Molar): 1.983
- Percent Growth (KM12; Log10 Concentration −6.0 Molar): 98%
- Mean Optical Densities (KM12; Log10 Concentration −7.0 Molar): 1.876
- Percent Growth (KM12; Log10 Concentration −7.0 Molar): 90%
- Mean Optical Densities (KM12; Log10 Concentration −8.0 Molar): 1.960
- Percent Growth (KM12; Log10 Concentration −8.0 Molar): 96%
- TGI (SW-620): >1.00E−4 Molar
- GI50 (SW-620; Homo sapiens): 6.51 µM
- CC50 (SW-620; [1]): > 100 µM
- Mean Optical Densities (SW-620; Log10 Concentration −4.0 Molar): 0.396
- Percent Growth (SW-620; Log10 Concentration −4.0 Molar): 25%
- Mean Optical Densities (SW-620; Log10 Concentration −5.0 Molar): 0.544
- Percent Growth (SW-620; Log10 Concentration −5.0 Molar): 42%
- Mean Optical Densities (SW-620; Log10 Concentration −6.0 Molar): 0.949
- Percent Growth (SW-620; Log10 Concentration −6.0 Molar): 87%
- Mean Optical Densities (SW-620; Log10 Concentration −7.0 Molar): 1.012
- Percent Growth (SW-620; Log10 Concentration −7.0 Molar): 94%
- Mean Optical Densities (SW-620; Log10 Concentration −8.0 Molar): 0.955
- Percent Growth (SW-620; Log10 Concentration −8.0 Molar): 88%
- TGI (LOX IMVI): >1.00E−4 Molar
- GI50 (LOX IMVI; Homo sapiens): 2.19 µM
- CC50 (LOX IMVI; [1]): > 100 µM
- Mean Optical Densities (LOX IMVI; Log10 Concentration −4.0 Molar): 0.353
- Percent Growth (LOX IMVI; Log10 Concentration −4.0 Molar): 12%
- Mean Optical Densities (LOX IMVI; Log10 Concentration −5.0 Molar): 0.396
- Percent Growth (LOX IMVI; Log10 Concentration −5.0 Molar): 18%
- Mean Optical Densities (LOX IMVI; Log10 Concentration −6.0 Molar): 0.703
- Percent Growth (LOX IMVI; Log10 Concentration −6.0 Molar): 66%
- Mean Optical Densities (LOX IMVI; Log10 Concentration −7.0 Molar): 0.743
- Percent Growth (LOX IMVI; Log10 Concentration −7.0 Molar): 73%
- Mean Optical Densities (LOX IMVI; Log10 Concentration −8.0 Molar): 0.778
- Percent Growth (LOX IMVI; Log10 Concentration −8.0 Molar): 78%
- TGI (UACC-62): >1.00E−4 Molar
- GI50 (UACC-62; Homo sapiens): 4.47 µM
- CC50 (UACC-62; [1]): > 100 µM
- Mean Optical Densities (UACC-62; Log10 Concentration −4.0 Molar): 0.573
- Percent Growth (UACC-62; Log10 Concentration −4.0 Molar): 16%
- Mean Optical Densities (UACC-62; Log10 Concentration −5.0 Molar): 0.697
- Percent Growth (UACC-62; Log10 Concentration −5.0 Molar): 35%
- Mean Optical Densities (UACC-62; Log10 Concentration −6.0 Molar): 0.971
- Percent Growth (UACC-62; Log10 Concentration −6.0 Molar): 78%
- Mean Optical Densities (UACC-62; Log10 Concentration −7.0 Molar): 1.072
- Percent Growth (UACC-62; Log10 Concentration −7.0 Molar): 93%
- Mean Optical Densities (UACC-62; Log10 Concentration −8.0 Molar): 1.038
- Percent Growth (UACC-62; Log10 Concentration −8.0 Molar): 88%
- TGI (OVCAR-8): >1.00E−4 Molar
- GI50 (OVCAR-8; Homo sapiens): 23.7 µM
- CC50 (OVCAR-8; [1]): > 100 µM
- Mean Optical Densities (OVCAR-8; Log10 Concentration −4.0 Molar): 0.873
- Percent Growth (OVCAR-8; Log10 Concentration −4.0 Molar): 46%
- Mean Optical Densities (OVCAR-8; Log10 Concentration −5.0 Molar): 0.952
- Percent Growth (OVCAR-8; Log10 Concentration −5.0 Molar): 53%
- Mean Optical Densities (OVCAR-8; Log10 Concentration −6.0 Molar): 1.298
- Percent Growth (OVCAR-8; Log10 Concentration −6.0 Molar): 82%
- Mean Optical Densities (OVCAR-8; Log10 Concentration −7.0 Molar): 1.092
- Percent Growth (OVCAR-8; Log10 Concentration −7.0 Molar): 65%
- Mean Optical Densities (OVCAR-8; Log10 Concentration −8.0 Molar): 1.311
- Percent Growth (OVCAR-8; Log10 Concentration −8.0 Molar): 83%
- TGI (UO-31): >1.00E−4 Molar
- GI50 (UO-31; Homo sapiens): 3.9 µM
- CC50 (UO-31; [1]): > 100 µM
- Mean Optical Densities (UO-31; Log10 Concentration −4.0 Molar): 0.786
- Percent Growth (UO-31; Log10 Concentration −4.0 Molar): 33%
- Mean Optical Densities (UO-31; Log10 Concentration −5.0 Molar): 0.841
- Percent Growth (UO-31; Log10 Concentration −5.0 Molar): 39%
- Mean Optical Densities (UO-31; Log10 Concentration −6.0 Molar): 1.102
- Percent Growth (UO-31; Log10 Concentration −6.0 Molar): 66%
- Mean Optical Densities (UO-31; Log10 Concentration −7.0 Molar): 1.189
- Percent Growth (UO-31; Log10 Concentration −7.0 Molar): 75%
- Mean Optical Densities (UO-31; Log10 Concentration −8.0 Molar): 1.250
- Percent Growth (UO-31; Log10 Concentration −8.0 Molar): 81%
- pIC50 (HIF-1): 8.52
